Reference: patent US20110256510A1, “Use of Quaternary Ammonium Compounds to Inhibit Endogenous MMPs in Tooth Dentin” (priority 2009, published 2011)
“And” between values parts separate entries of the source, which are not always exact repeats. Equal values may be shown once. Where a name gives a salt, the structure may show the parent alone.

Key:
human recombinant MMP-9 = molecular target: T1, human recombinant MMP-9 (Homo sapiens, UniProt P14780); assay: Human MMP-9-based anti-MMP screening assay (Sensolyte Generic MMP colorimetric kit); assay type: biochemical; details: soluble human MMP-9
T1 construct: purchased AnaSpec, Inc. 72009
Experimental: Human MMP-9-based anti-MMP screening assay: This assay employed purified human recombinant MMP-9 (Cat. No. 72009) and the Sensolyte Generic MMP colorimetric assay kit (Cat. No. 72095) from AnaSpec, Inc. (San Jose, Calif., USA) for screening anti-MMP activity of compounds of interest. This assay involves incubating a constant concentration of human MMP-9 with a proprietary thiopeptide substrate and quantifying the amount of substrate cleaved by the […] in the presence and absence of different test compounds. Cleavage of the proprietary thiopeptide substrate is quantitated by evaluating color production. Reactions may be assembled in a 96-well plate. After incubation for 30 minutes at 37° C., reactions are stopped and absorption measured at 412 nm using a 96-well plate reader synergy HT (BioTek Instruments, Inc., Winooski, Vt., USA).

[1] = system: Clostridium histolyticum collagenase; assay: Bacterial collagenase-based anti-MMP screening assay (SDS-PAGE gel analysis of undegraded Type I collagen); assay type: biochemical
Experimental: Bacterial collagenase-based anti-MMP screening assay: This assay employs purified Clostridium histolyticum collagenase (hereinafter “collagenase”) as the test enzyme for screening anti-MMP activity of compounds of interest. The screening assay involves incubating a constant concentration of collagenase with Type I soluble collagen and quantifying the amount of Type I collagen that remains undegraded in the presence of collagenase in the presence and absence of different test compounds. The basic assay composition comprises 50 μg of Type I collagen (e.g., human placental; Cat. # C7521; Sigma-Aldrich, St. Louis, […]., USA) and 50 μg of collagenase (e.g., Clostridium histolyticum E.C. 3.4.24.3; Cat. No. C7667 (1909 CDU/mg solid); Sigma-Aldrich, St. Louis, […]., USA) in a physiological buffer (pH 7.4) containing zinc ions, with a total reaction volume of 60 μl. […] The buffer composition used comprises […] Tris Base, 200 mM NaCl, 10 mM CaCl2, 0.05 mM ZnCl2, 3 mM NaN3 adjusted to […] with 1 N HCl.
Compounds of interest are added to the reaction system described above to assess their ability to inhibit collagenase degradation of collagen. As test compounds vary with respect to molecular weight and affinity for the dentin matrix, a range of concentrations (wt %) for each compound may be added to the basic reaction. Test compounds may be diluted approximately 1:5 in the final reaction volume by the subsequent sequential addition of solutions containing collagenase, collagen, and buffer.
The enzyme and the collagen are kept on ice. Twenty μL of enzyme (concentration of 5 μg protein/μL×20 μL=100 μg of enzyme) protein was incubated with 5 μL of loading buffer and 20 μL of inhibitor. The reaction was started by adding 20 μL of type I collagen (5 μg/μL×20=100 μg collagen). Thus, the total volume was 65 μL. The total protein was 100 μg enzyme protein plus 100 μg of collagen=200 μg protein in 65 μL. Thirty μL of that mixture was applied to the gel (30/65×200 μg protein=92.3 μg protein. Because the total volume was 65 μL and the inhibitor volume was 20 μL, the inhibitor was diluted 3.25-fold.
Following assembly, reactions are incubated for one hour at 37° C. The incubation reactions were terminated by submerging the tube in boiling water for 3 min. After termination, 30 μL of each reaction assay containing 92 μg of total protein is loaded onto a 7.5% SDS-PAGE polyacrylamide gel (BioRad, Hercules, Calif.) and subjected to electrophoresis at 200 V for 60 min. SDS-PAGE gels are routinely run with samples and various controls in the following order. The nature of the controls is further described below. Controls include collagenase alone (lane 1); collagen alone (lane 2); and collagen mixed with collagenase (lane 3). Assay reactions containing collagen mixed with collagenase plus various concentrations of the test collagenase inhibitor compounds are then loaded on the gel starting with lane 4 (loaded in order of decreasing compound concentration).
Following electrophoresis of the samples, the gel is stained in 0.25% Coomassie Brilliant Blue overnight and destained for 8 hrs in water prior to imaging. After destaining, the gels are digitally scanned to permit quantification of the amount of undegraded collagen present in each reaction, relative to the collagen standard in lane 2.
With regards to the controls, both Type I collagen and collagenase are proteins too large to migrate very far into the SDS-PAGE gel.

T1 sequence (P14780 94-707): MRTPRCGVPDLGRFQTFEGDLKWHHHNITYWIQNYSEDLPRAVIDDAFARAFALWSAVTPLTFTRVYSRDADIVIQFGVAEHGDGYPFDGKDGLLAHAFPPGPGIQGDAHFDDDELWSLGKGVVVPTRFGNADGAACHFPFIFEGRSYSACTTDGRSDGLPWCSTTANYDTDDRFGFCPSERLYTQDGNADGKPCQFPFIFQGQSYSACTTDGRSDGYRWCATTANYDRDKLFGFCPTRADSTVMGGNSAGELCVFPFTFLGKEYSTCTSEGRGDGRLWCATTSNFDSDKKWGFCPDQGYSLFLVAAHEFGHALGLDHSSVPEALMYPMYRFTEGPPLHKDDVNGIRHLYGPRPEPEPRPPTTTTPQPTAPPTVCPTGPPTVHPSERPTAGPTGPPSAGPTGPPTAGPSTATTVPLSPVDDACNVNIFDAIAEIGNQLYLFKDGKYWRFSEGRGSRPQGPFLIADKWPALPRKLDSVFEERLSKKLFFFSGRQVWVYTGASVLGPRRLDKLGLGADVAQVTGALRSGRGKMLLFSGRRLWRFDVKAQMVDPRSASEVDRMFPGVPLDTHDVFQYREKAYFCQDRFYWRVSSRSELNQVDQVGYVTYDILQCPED

## C=CC(=O)OCC[N+](C)(C)C.[Cl-] [ATA, 2-Acryloxyethyltrimethylammonium chloride]
Human recombinant MMP-9; inhibitor 10 wt %
  % MMP ACTIVITY INHIBITION (t = 30 minutes): 79%
Human recombinant MMP-9; inhibitor 24 wt %
  % MMP ACTIVITY INHIBITION (t = 30 minutes): 82%
[1]; inhibitor 0.5 wt %
  COLLAGENASE INHIBITION (%): 57%
[1]; inhibitor 1 wt %
  COLLAGENASE INHIBITION (%): 55%
[1]; inhibitor 4 wt %
  COLLAGENASE INHIBITION (%): 44%
[1]; inhibitor 8 wt %
  COLLAGENASE INHIBITION (%): 49%
[1]; inhibitor 16 wt %
  COLLAGENASE INHIBITION (%): 73%

## CC(=O)O.CC(=O)O.NC(=N\CCCCCC/N=C(N)/N=C(\N)Nc1ccc(Cl)cc1)/N=C(\N)Nc1ccc(Cl)cc1 [Chlorhexidine diacetate, chlorhexidine diacetate, reference compound]
[1]; inhibitor 0.02 wt %
  COLLAGENASE INHIBITION (%): 1%
[1]; inhibitor 0.02 wt %, listed as CHX
  COLLAGENASE INHIBITION (%): did not inhibit collagenase
[1]; inhibitor 0.2 wt %
  COLLAGENASE INHIBITION (%): 74%
[1]; inhibitor 0.2 wt %, listed as CHX
  COLLAGENASE INHIBITION (%): 69%

## C=CC[N+](C)(C)CC=C.[Cl-] [DDAC, Diallyldimethylammonium chloride]
Human recombinant MMP-9; inhibitor 10 wt %
  % MMP ACTIVITY INHIBITION (t = 30 minutes): 7%
Human recombinant MMP-9; inhibitor 24 wt %
  % MMP ACTIVITY INHIBITION (t = 30 minutes): 16%
[1]; inhibitor 0.5 wt %
  COLLAGENASE INHIBITION (%): 50%
[1]; inhibitor 1 wt %
  COLLAGENASE INHIBITION (%): 56%
[1]; inhibitor 3 wt %
  COLLAGENASE INHIBITION (%): 59%
[1]; inhibitor 6 wt %
  COLLAGENASE INHIBITION (%): 66%
[1]; inhibitor 12 wt %
  COLLAGENASE INHIBITION (%): 73%

## O=C(O)CN(CCN(CC(=O)O)CC(=O)O)CC(=O)O [EDTA, reference compound]
[1]; inhibitor 10 mM (control lane)
  inhibited collagenase: 100% and 87%

## C=C(C)C(=O)NCCC[N+](C)(C)C.[Cl-] [MAPTAC, [3-(Methacryloylamino)propyl]trimethylammonium chloride]
Human recombinant MMP-9; inhibitor 10 wt %
  % MMP ACTIVITY INHIBITION (t = 30 minutes): 6%
Human recombinant MMP-9; inhibitor 24 wt %
  % MMP ACTIVITY INHIBITION (t = 30 minutes): 17%
[1]; inhibitor 0.1 wt %
  COLLAGENASE INHIBITION (%): 41%
[1]; inhibitor 0.5 wt %
  COLLAGENASE INHIBITION (%): 39%
[1]; inhibitor 1 wt %
  COLLAGENASE INHIBITION (%): 53%
[1]; inhibitor 5 wt %
  COLLAGENASE INHIBITION (%): 53%
[1]; inhibitor 10 wt %
  COLLAGENASE INHIBITION (%): 55%

## C=C(C)C(=O)OCC[N+](C)(C)C [MCMS, 2-[(Methacryloyloxy)ethyl]trimethylammonium methyl sulfate]
Human recombinant MMP-9; inhibitor 10 wt %
  % MMP ACTIVITY INHIBITION (t = 30 minutes): 55%
Human recombinant MMP-9; inhibitor 24 wt %
  % MMP ACTIVITY INHIBITION (t = 30 minutes): 84%
[1]; inhibitor 0.5 wt %
  COLLAGENASE INHIBITION (%): 73%
[1]; inhibitor 1 wt %
  COLLAGENASE INHIBITION (%): 70%
[1]; inhibitor 4 wt %
  COLLAGENASE INHIBITION (%): 65%
[1]; inhibitor 8 wt %
  COLLAGENASE INHIBITION (%): 62%
[1]; inhibitor 16 wt %
  COLLAGENASE INHIBITION (%): 87%

## C=C(C)C(=O)OCC[N+](C)(C)C.[Cl-] [METMAC, [2-(Methacryloyloxy)ethyl]trimethylammonium chloride]
Human recombinant MMP-9; inhibitor 10 wt %
  % MMP ACTIVITY INHIBITION (t = 30 minutes): 42%
Human recombinant MMP-9; inhibitor 24 wt %
  % MMP ACTIVITY INHIBITION (t = 30 minutes): 71%
[1]; inhibitor 1.3 wt %
  COLLAGENASE INHIBITION (%): 39%
[1]; inhibitor 6.4 wt %
  COLLAGENASE INHIBITION (%): 56%
[1]; inhibitor 12.85%
  inhibited collagenase: 69%
[1]; inhibitor 12.9 wt %
  COLLAGENASE INHIBITION (%): 69%
[1]; inhibitor 25.7 wt %
  COLLAGENASE INHIBITION (%): 100%

## Cc1c(OCC(O)C[N+](C)(C)C)cc2c(=O)c3ccccc3sc2c1C.[Cl-] (stereo not drawn) [OTX, [3-(3,4-dimethyl-9-oxo-9H-thioxanthen-2-yloxy)-2-hydroxypropyl] trimethyl ammonium chloride]
[1]; inhibitor 0.1 wt %
  COLLAGENASE INHIBITION (%): 57%
[1]; inhibitor 0.2 wt %
  COLLAGENASE INHIBITION (%): 86%

## CCCCCCCCCCCCCCCC[N+](C)(C)C.[Br-] [hexadecyl trimethyl ammonium bromide, reference compound]
[1]; inhibitor 0.15% in ethanol
  inhibitory activity against collagenase: no inhibitory activity

## benzalkonium chloride [reference compound]
[1]; inhibitor 10 wt %
  COLLAGENASE INHIBITION (%): no inhibitory activity

## pyridinium tribromide [reference compound]
[1]; inhibitor 1 wt %
  COLLAGENASE INHIBITION (%): no inhibitory activity
